Entries after “also recorded” stand apart in the source; their conditions may differ. Where a SMILES comes first, the peptide text is derived from it. Where no end group is shown, it is not given here.
Legend:
[1] = system: anti-MBP purified from CSF of MS patients; assay: In vitro neutralization of purified anti-MBP (liquid phase assay, then solid phase radioimmunoassay); type: binding, human; settings: for neutralization of purified anti-MBP: pooled anti-MBP from 10 MS patients, FIG. 2; for REACTIVITY WITH ANTI-MBP: purified anti-MBP, h-MBP 0-1000 ng, peptides 0-10,000 ng, 1.5 hours incubation; for neutralization of anti-MBP purified from individual patients: anti-MBP from 7 individual MS patients, FIG. 3; for times less effective on a molar basis than intact MBP at causing inhibition: peptides giving complete inhibition
Description: Purified MBP was coupled to CNBr-activated Sepharose 4B (Pharmacia™) according to the manufacturer's instructions. Purified CSF IgG containing increased anti-MBP levels from 35 patients with acute MS relapses was used to isolate anti-MBP by MBP-Sepharose affinity chromatography (Warren, K. G. and Catz, I., J Neurol Sci 103:90-96, 1991). Purified anti-MBP samples were compared with the initial IgG source by poly-acrylamide gel electrophoresis. When purified anti-MBP samples were absorbed to zero with MBP, the post-absorption supernatants contained no residual IgG indicating the purity of anti-MBP.
Constant amounts of anti-MBP (15 radioactivity binding units corresponding to 100 for scale expansion purposes=% 0) were incubated with increasing amounts of h-MBP (0-1000 ng) or individual peptides of MBP (0-10,000 ng) in a liquid phase assay and after 1.5 hours incubation, free anti-MBP levels were determined in all mixtures. Anti-MBP isolated from 7 individual MS patients or pooled anti-MBP from 10 different MS patients were used in neutralization experiments. […] Another mouse monoclonal antibody to epitope 45-50 was used as negative antibody control.
Anti-MBP levels were determined by a solid phase radioimmunoassay with human MBP (Warren, K. G. and Catz, I., Ann Neurol 209:20-25, 1986; Warren, K. G. and Catz, I., Ann Neurol 21:183-187, 1987; and Warren, K. G. and Catz, I., J Neurol Sci 91:143-151, 1989). Free anti-MBP levels were measured in all fractions from affinity chromatography and in all neutralization mixtures. All individual samples were run in quadruplicate using the same iodinated material in order to minimize between-assay variability.

[2] = Safety monitoring of MS patients after peptide administration; type: in vivo, human
CSF anti-MBP = assay: Intrathecal peptide administration to MS patients, CSF anti-MBP by radioimmunoassay; type: in vivo, human
Protocol: Anti-MBP levels were determined by a solid phase radioimmunoassay with human MBP coated on Immulon microtiter wells. Immulon microtiter wells were coated with 100 μl of 10 μg/ml of MBP (1 μg/well) and incubated overnight at 37° C. After quenching with bovine serum albumin (BSA) and three water washes, the wells were stored at room temperature. Samples of 100 μl of CSF or tissue extracts diluted to 0.010 gm of IgG/l (with 0.01 M Barbitol Buffered Saline (BBS) pH 6.9-7.1, 0.5% BSA and 0.05% Tween 20) were incubated in MBP-coated wells for 1-2 hours at room temperature. After 5 buffer washes (with 0.01 M BBS, 0.5 BSA and 0.05% Tween 20), wells were incubated with goat […] IgG-Fc specific (in 0.01 M BBS, 0.05% Tween 20, 0.5% BSA) for 1 hour at room temperature and then rinsed as above. Finally, ^125I-protein A (or ^125I-protein G) was added and incubated for 1 hour at room temperature. When ^125I-protein G was used as a tracer, ovalbumin replaced BSA in assay buffer and for quenching. After three final water washes wells were individually counted. Results are expressed in radioactivity defined as: (counts of sample−counts of blank)÷(counts of total radioactivity−counts of blank). All samples are run in 10 replicate and counting time is 10 minutes in order to collect>10,000 counts for any positive sample.
Prior to being assayed all CSF and/or tissue samples were diluted to a final IgG concentration of 0.010 g/l. F anti-MBP was detected directly in CSF or tissue extract while B levels of antibody were determined following acid hydrolysis of immune complexes with glycine HCl buffer pH 2.2. […] For epitope localization, synthetic peptides were firstly reacted with purified antibody in a liquid phase competitive assay and then anti-MBP was determined by radioimmunoassay in all resulting supernatants. Results of the combined competitive binding assay and radioimmunoassay were expressed as percent inhibition of synthetic peptide defined as 100—radioactivity units. Samples were done in 10 replicates and counted for 10 minutes each in a LKB1275 Minigamma counter. […]
A Phase 1 experiment to determine the effect of synthetic peptide MBP75-95 on F and B titers of CSF anti-MBP was conducted. […] After obtaining informed consent, 14 patients volunteered for this study; eight patients were selected on the basis of their initial titre of F CSF anti-MBP (above 8 radioactivity units) (Table 2) to receive one intrathecal injection of either peptide MBP75-95 which bound anti-MBP in vitro or a non-binding control peptide MBP35-58 (Warren and Catz, 1993b). […] Cell counts, total protein, glucose, IgG and albumin levels were determined in all CSF samples obtained. F and B anti-MBP levels were determined by radioimmunoassay, as described above. […]

[3] = target: purified F (free) anti-MBP from MS brain tissue; assay: liquid-phase competitive inhibition + solid-phase RIA on human MBP (FIG. 10)
[4] = target: purified B (bound) anti-MBP from MS brain tissue; assay: as above
[5] = target: free (F) anti-MBP in the CSF of MS patients; assay: cell-based or functional assay
[6] = target: purified anti-MBP (antibodies to human myelin basic protein purified from CSF of multiple sclerosis patients; pooled from 10 different patients); assay: liquid-phase neutralization + solid-phase RIA on human MBP; reference intact MBP
[7] = target: purified B (bound) anti-MBP from MS brain tissue; assay: competitive inhibition assays using a series of 41 decapeptides

**Q.** Which “solubility in normal saline” value (Solubility of peptides) does the source give for `CC[C@H](C)[C@H](NC(=O)[C@H](CC(N)=O)NC(=O)[C@H](CCCCN)NC(=O)[C@H](Cc1ccccc1)NC(=O)[C@H](Cc1ccccc1)NC(=O)[C@H](Cc1c[nH]cn1)NC(=O)[C@@H](NC(=O)[C@@H](N)C(C)C)C(C)C)C(=O)N[C@H](C(=O)N[C@H](C(=O)O)[C@@H](C)O)C(C)C` [MBP86-95] (H-VVHFFKNIVT-OH; N-terminus and C-terminus assumed) here?
**A.** very low solubility

**Q.** Which “neutralization of purified anti-MBP” value [1] does the source give for YGSLPQKSHGRTQDE [MBP69-83] here?
**A.** partially neutralized

**Q.** And the “REACTIVITY WITH ANTI-MBP” value [1]?
**A.** ++

**Q.** For “Cy 127-140: synthetic peptide of human MBP sequence 127-140 with unnatural cysteine residue (CYGGRASDYKSAHKG)”, which “REACTIVITY WITH ANTI-MBP” value [1] is on record?
**A.** −

**Q.** For “141-155: synthetic peptide of human MBP sequence 141-155 (FKGVDAQGTLSKIFK)”, which “REACTIVITY WITH ANTI-MBP” value [1] is on record?
**A.** −

**Q.** Which “REACTIVITY WITH ANTI-MBP” value [1] does the source give for “Cy 51-64 Gly: synthetic peptide of human MBP sequence 51-64 with added Cy and Gly (CAPKRGSGKDSHHPAG)” here?
**A.** +

**Q.** Which “neutralization of anti-MBP purified from individual patients” value [1] does the source give for KNIVTPRTPPPSQGKG [MBP91-106] here?
**A.** completely neutralized

**Q.** And the “times less effective on a molar basis than intact MBP at causing inhibition” value [1]?
**A.** approximately 100 times

**Q.** And the “neutralization of purified anti-MBP” value [1]?
**A.** completely neutralized

**Q.** And the “REACTIVITY WITH ANTI-MBP” value [1]?
**A.** −

**Q.** Which results are given for `CC[C@H](C)[C@H](NC(=O)[C@H](CC(N)=O)NC(=O)[C@H](CCCCN)NC(=O)[C@H](Cc1ccccc1)NC(=O)[C@H](Cc1ccccc1)NC(=O)[C@H](Cc1c[nH]cn1)NC(=O)[C@@H](NC(=O)[C@@H](NC(=O)[C@@H]1CCCN1C(=O)[C@H](CC(N)=O)NC(=O)[C@H](CCC(=O)O)NC(=O)[C@H](CC(=O)O)NC(=O)[C@H](CCC(N)=O)NC(=O)[C@@H](NC(=O)[C@H](CCCNC(=N)N)NC(=O)CNC(=O)[C@H](Cc1c[nH]cn1)NC(=O)[C@H](CO)NC(=O)[C@@H](N)CCCCN)[C@@H](C)O)C(C)C)C(C)C)C(=O)N[C@H](C(=O)N[C@H](C(=O)O)[C@@H](C)O)C(C)C` [MBP75-95] (H-KSHGRTQDENPVVHFFKNIVT-OH; N-terminus and C-terminus assumed)?
**A.** adverse effects ([2]; 500 mg intravenously over 30 minutes, patient 8M41): No adverse effects were observed; systemic complications (electrolytes, cardiac-liver-kidney dysfunction, hematology) ([2]; repeated intrathecal inoculations): no adverse complications have occurred

**Q.** Which “REACTIVITY WITH ANTI-MBP” value [1] does the source give for “117-129: synthetic peptide of human MBP sequence 117-129 (GAEGQRPGFGYGG)” here?
**A.** −

**Q.** With “Cy 11-24: synthetic peptide of human MBP sequence 11-24 with unnatural cysteine residue (CGSKYLATASTMDHA)” as the molecule, how does the “REACTIVITY WITH ANTI-MBP” value [1] read?
**A.** −

**Q.** For “Thr Gln Asp Glu Asn Pro Val Val His Phe Phe Lys Asn Ile Val Thr Pro Arg (CTQDENPVVHFFKNIVTPRG) [MBP80-97]”, which “neutralization of anti-MBP purified from individual patients” value [1] is on record?
**A.** completely neutralized

**Q.** What about the “times less effective on a molar basis than intact MBP at causing inhibition” value [1] of the same molecule?
**A.** approximately 100 times

**Q.** What about the “neutralization of purified anti-MBP” value [1] of the same molecule?
**A.** completely neutralized

**Q.** And the “REACTIVITY WITH ANTI-MBP” value [1]?
**A.** ++

**Q.** Which “CSF F anti-MBP” value (CSF anti-MBP; single intrathecal injection 5 mg) does the source give for “MBP35-58: non-binding, control synthetic peptide of human MBP, residues 35-58 (TGILDSIGRFFGGDRGAPKRGSGK)” here?
**A.** remained elevated at baseline level

**Q.** And the “CSF F anti-MBP” value (CSF anti-MBP; single intrathecal injection 10 mg, chronic progressive MS)?
**A.** persistently elevated

**Q.** And the “F and B levels of CSF anti-MBP” value (CSF anti-MBP; single intrathecal injection 1, 2.5, 5 or 10 mg, 24 hour experiment, chronic progressive MS)?
**A.** remained unchanged; also recorded: remained unaffected

**Q.** What about the “CSF F (free) anti-MBP” value (CSF anti-MBP; single intrathecal injection, increasing amounts 1-10 mg, chronic progressive MS) of the same molecule?
**A.** did not react

**Q.** What about the “REACTIVITY WITH ANTI-MBP” value [1] of the same molecule?
**A.** −

**Q.** With “Cy 4-18: synthetic peptide of human MBP sequence 4-18 with unnatural cysteine residue (CKRPSQRHGSKYLATA)” as the molecule, how does the “REACTIVITY WITH ANTI-MBP” value [1] read?
**A.** −

**Q.** Which “REACTIVITY WITH ANTI-MBP” value [1] does the source give for “26-40: synthetic peptide of human MBP sequence 26-40 (HGFLPRHRDTGILDS)” here?
**A.** −

**Q.** Which “neutralization of purified anti-MBP” value [1] does the source give for HHPARTAHYGSLPQK [MBP61-75] here?
**A.** partially neutralized

**Q.** And the “REACTIVITY WITH ANTI-MBP” value [1]?
**A.** +

**Q.** For “Cy 136-149: synthetic peptide of human MBP sequence 136-149 with unnatural cysteine residue (CSAHKGFKGVDAQGT)”, which “REACTIVITY WITH ANTI-MBP” value [1] is on record?
**A.** −

**Q.** Which percent inhibition [3] does the source give for KSHGRTQDENPVVHFFKNIVT [synthetic peptide MBP75-95 (Example 2 and later)] here?
**A.** 100%

**Q.** What about the percent inhibition [4] of the same molecule?
**A.** 100%

**Q.** And the decrease in F anti-MBP level in CSF after one intrathecal injection of 1 mg MBP75-95 (patient 6F53) [5]?
**A.** 75%

**Q.** For CTQDENPVVHFFKNIVTPRG [peptide MBP80-97 (Cy 80-97 Gly)], which times less effective on a molar basis than intact MBP at causing inhibition [6] is on record?
**A.** 100 times

**Q.** Which times less effective on a molar basis than intact MBP at causing inhibition [6] does the source give for CKNIVTPRTPPPSQGKG [peptide MBP91-106 (Cy 91-106)] here?
**A.** 100 times

**Q.** With CKSHGRTQDENPVVHFFKNIVT [peptide MBP75-95 (Cy 75-95, Example 1)] as the molecule, how does the times less effective on a molar basis than intact MBP at causing inhibition [6] read?
**A.** 100 times

**Q.** With NPVVHFFKNI [decapeptide MBP84-93] as the molecule, how does the percent inhibition [3] read?
**A.** > 80%

**Q.** And the percent inhibition [4]?
**A.** > 80%

**Q.** Which percent inhibition [3] does the source give for PVVHFFKNIV [decapeptide MBP85-94] here?
**A.** > 80%

**Q.** And the percent inhibition [4]?
**A.** > 80%

**Q.** With VVHFFKNIVT [decapeptide MBP86-95] as the molecule, how does the percent inhibition [7] read?
**A.** > 95%

**Q.** And the percent inhibition [3]?
**A.** > 80%

**Q.** And the percent inhibition [4]?
**A.** > 80%

**Q.** For VHFFKNIVTP [decapeptide MBP87-96], which percent inhibition [3] is on record?
**A.** > 80%

**Q.** What about the percent inhibition [4] of the same molecule?
**A.** > 80%

Source: patent publication US7368429B2, “Peptide specificity of anti-myelin basic protein and the administration of myelin basic protein peptides to multiple sclerosis patients” (The Governors of the University of Alberta, priority 1991, dated 2008)
